Consider two molecules from US20240226085A1, “KYNRENINE AND DERIVATIVES THEREOF FOR TREATING ATROPHIC SCARRING” (BirchBioMed Inc., priority 2021, published 2024).

Assay [1] concerns rabbit ear hypertrophic scarring model. The note with it: topical application to skin tissue; '523 FIG. 13; cited from earlier work.
Assay [2] relates to atrophic acne scarring on the face. In words: Topical kynurenic acid (0.5% by weight) cream for reducing appearance of atrophic acne scarring (individual user reports). Format: in vivo, human. The note with it: person. The text has this:
FIG. 1A is a photographic representation of a target facial skin area of a subject with treatment-resistant stable atrophic scarring from acne before application of topical kynurenic acid (0.5% by weight) cream.
FIG. 1B is a photographic representation of the target facial skin area of the subject of FIG. 1A after bidaily use of topical kynurenic acid (0.5% by weight) for 8 weeks. […] The dashed black box in each image highlights the similar target area on the right cheek region in both images for comparison.
I. A topical cream was made as follows, kynurenic acid was solubilized in a phosphate buffered solution of 1 M NaOH and the pH was then adjusted to 5.5 at room temperature, this KynA solution was then added with steady mixing to a dermatological compounding base (Glaxal Base™, WellSpring, Ont., Canada) and adjusted to a pH of 6 before packaging in poly bottles. Topical cream was made at 0.15%, 0.25%, 0.4%, and 0.5% kynurenic acid by weight (Papp et al., 2018).
A person presented with significant atrophic acne scarring on the face and self-reported that their acne scars had been treatment resistant for >20 years. The person applied a topical cream containing 0.5% kynurenic acid by weight twice daily for a 3-month period to the site of the atrophic acne scarring, an application rate of approximately 17 ug of kynurenic acid per cm^2 of skin per application. Initial dermatological healing can be followed by visual inspection of the site. […] An illustrative image of the “before” and “during use” is shown as FIG. 1.
A person with atrophic acne scarring on the face self-reported that the scars were “mature”, “stable”, and had persisted for “>3 years”. The person applied a topical cream containing 0.5% kynurenic acid by weight once daily for a 2-month period at an application rate of approximately 2.5-5 micrograms kynurenic acid per square cm of skin per application.

In a further assay the test system is dermal fibroblasts. The note with it: cited from earlier work.

With `Nc1ccccc1C(=O)CC(N)C(=O)O` (racemic) [kynurenine], in assay [1], the “MMP-1 relative to controls” value is “increased” and the “collagen relative to controls” value is given as “decreased”.
Regarding `O=C(O)c1cc(=O)c2ccccc2[nH]1` [kynurenic acid], the “remarks of others on the user's atrophic acne scars” value in assay [2] (topical cream 0.5% by weight once daily, 2-month period) is recorded as “less visible or less noticeable”. Besides, the “user-reported appearance of holes and indents of atrophic acne scars” value in assay [2] (topical cream 0.5% by weight once daily, 2-month period, approx. 2.5-5 micrograms per square cm per application) was “less visible and less noticeable and appeared to be filling in”. Besides, the “time at which the reported reduction in appearance started” value in assay [2] (topical cream 0.5% by weight twice daily) is listed as “approximately 2 weeks”. Also, in assay [2] (topical cream 0.5% by weight twice daily, 3-month period), the “unsolicited feedback from others on appearance of acne [atrophic scarring]” value is recorded as “markedly less apparent”. Further, the “subject-reported perceived appearance of atrophic acne scarring” value in assay [2] (topical cream 0.5% by weight twice daily, 3-month period, approx. 17 ug per cm^2 per application) was “significant reduction”. In the assay on dermal fibroblasts ('523 FIG. 2), the MMP-1 expression result is “increase”. For the same molecule, in the assay on dermal fibroblasts ('523 FIG. 3), the MMP-3 expression entry is “increase”. Also, in the assay on dermal fibroblasts ('523 FIG. 10), the “collagen 1 expression” value was “downregulate”. Also, the fibronectin expression result in the assay on dermal fibroblasts ('523 FIG. 16) was “downregulate”.
